We go through nine compounds from patent publication US20110015162A1, “15,16-Methylene-17-hydroxy-19-nor-21-carboxylic acid-steroid Y-lactone derivative, use thereof and medicinal products containing the derivative” (Bayer Schering Pharma Aktiengesellschaft, priority 2007, published 2011).

In assay [1] the target is T1, fusion protein from the PR-ligand-binding domain and a Gal4-transactivation domain (Homo sapiens, UniProt P06401).
T1 construct: expressed in transfected cells; host or cells: CHO K1 cells, stably transfected
T1 sequence (P04386 1-147 partner limits assumed, one chain of several): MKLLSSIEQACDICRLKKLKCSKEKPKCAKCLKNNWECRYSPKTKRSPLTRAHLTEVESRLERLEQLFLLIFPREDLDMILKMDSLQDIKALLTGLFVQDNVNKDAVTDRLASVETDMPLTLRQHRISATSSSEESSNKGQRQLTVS
Put plainly: Progestational action by transactivation test (CHO K1 reporter cells). It is filed as cell-based. The settings on record: for Emax: CHO-K1, 16 h, read-out: Progesterone receptor Agonism efficacy. The procedure:
4. Determination of Progestational Action by Means of Transactivation Tests:
The culture medium used for culture of the cells used for the assay was DMEM (Dulbecco's Modified Eagle Medium: […] glucose; PAA, #E15-009) with 10% FCS (Biochrom, S0115, batch #615B), 4 mM L-glutamine, 1% penicillin/streptomycin, 1 mg/ml G418 and 0.5 μg/ml puromycin.
Reporter cell lines (CHO K1 cells stably transfected with a fusion protein from the PR-ligand-binding domain and a Gal4-transactivation domain and a reporter construct, which contained luciferase under the control of a Gal4-responsive promoter) were seeded at a density of 4×10^4 cells per well in white, opaque tissue culture plates each with 96 wells (PerkinElmer, #P12-106-017) and kept in culture medium with 3% DCC-FCS (serum treated with activated charcoal to remove interfering components contained in the serum). The test compounds were added eight hours later, and the cells were incubated with the compounds for 16 hours. The tests were carried out in triplicate. At the end of incubation the medium containing the effector was removed and replaced with lysis buffer. After luciferase assay substrate (Promega, #E1501) had been added, the 96-well plates were then put in a microplate luminometer (Pherastar, BMG Labtech), and the luminescence was measured. The IC50 values were evaluated using software for calculating dose-effect relations.

In another assay the target is T2, androgen receptor (Homo sapiens, UniProt P10275).
T2 sequence (P10275 1-920): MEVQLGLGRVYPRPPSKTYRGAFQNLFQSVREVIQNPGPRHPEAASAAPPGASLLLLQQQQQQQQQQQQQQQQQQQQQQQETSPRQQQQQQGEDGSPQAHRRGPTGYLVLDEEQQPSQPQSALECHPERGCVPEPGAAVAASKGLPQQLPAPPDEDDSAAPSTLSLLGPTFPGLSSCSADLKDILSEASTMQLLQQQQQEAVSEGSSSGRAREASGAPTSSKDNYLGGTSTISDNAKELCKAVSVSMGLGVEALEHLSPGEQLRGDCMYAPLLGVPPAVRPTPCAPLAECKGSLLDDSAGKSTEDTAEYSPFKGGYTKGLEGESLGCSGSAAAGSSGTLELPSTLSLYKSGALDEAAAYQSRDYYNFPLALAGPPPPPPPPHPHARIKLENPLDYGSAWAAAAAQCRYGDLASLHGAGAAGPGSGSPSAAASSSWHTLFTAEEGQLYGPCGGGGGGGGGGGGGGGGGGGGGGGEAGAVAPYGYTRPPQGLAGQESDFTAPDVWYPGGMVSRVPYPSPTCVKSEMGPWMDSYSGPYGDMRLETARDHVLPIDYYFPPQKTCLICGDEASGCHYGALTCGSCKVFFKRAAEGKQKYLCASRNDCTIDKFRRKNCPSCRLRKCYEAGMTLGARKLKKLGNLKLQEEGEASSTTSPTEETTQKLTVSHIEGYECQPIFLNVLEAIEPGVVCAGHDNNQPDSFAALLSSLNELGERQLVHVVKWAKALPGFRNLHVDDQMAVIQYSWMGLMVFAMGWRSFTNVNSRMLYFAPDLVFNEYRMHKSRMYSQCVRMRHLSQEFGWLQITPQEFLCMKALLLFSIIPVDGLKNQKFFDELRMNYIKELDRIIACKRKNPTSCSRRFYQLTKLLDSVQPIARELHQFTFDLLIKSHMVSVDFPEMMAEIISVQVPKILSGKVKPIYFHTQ
Briefly: Androgen receptor binding test. Also on record: expressed in transfected cells. The procedure:
(§1) Using cytosol from progesterone receptor-expressing insect cells (Hi5), competitive binding to the progesterone receptor was determined from the ability to displace ^3H-progesterone as reference substance from the receptor.
3. Androgen Receptor Binding Test: […]

A further assay has as its target T3, progesterone receptor (Homo sapiens, UniProt P06401).
T3 construct: made in house; host or cells: Hi5 insect cells (cytosol)
T3 sequence (P06401 1-933): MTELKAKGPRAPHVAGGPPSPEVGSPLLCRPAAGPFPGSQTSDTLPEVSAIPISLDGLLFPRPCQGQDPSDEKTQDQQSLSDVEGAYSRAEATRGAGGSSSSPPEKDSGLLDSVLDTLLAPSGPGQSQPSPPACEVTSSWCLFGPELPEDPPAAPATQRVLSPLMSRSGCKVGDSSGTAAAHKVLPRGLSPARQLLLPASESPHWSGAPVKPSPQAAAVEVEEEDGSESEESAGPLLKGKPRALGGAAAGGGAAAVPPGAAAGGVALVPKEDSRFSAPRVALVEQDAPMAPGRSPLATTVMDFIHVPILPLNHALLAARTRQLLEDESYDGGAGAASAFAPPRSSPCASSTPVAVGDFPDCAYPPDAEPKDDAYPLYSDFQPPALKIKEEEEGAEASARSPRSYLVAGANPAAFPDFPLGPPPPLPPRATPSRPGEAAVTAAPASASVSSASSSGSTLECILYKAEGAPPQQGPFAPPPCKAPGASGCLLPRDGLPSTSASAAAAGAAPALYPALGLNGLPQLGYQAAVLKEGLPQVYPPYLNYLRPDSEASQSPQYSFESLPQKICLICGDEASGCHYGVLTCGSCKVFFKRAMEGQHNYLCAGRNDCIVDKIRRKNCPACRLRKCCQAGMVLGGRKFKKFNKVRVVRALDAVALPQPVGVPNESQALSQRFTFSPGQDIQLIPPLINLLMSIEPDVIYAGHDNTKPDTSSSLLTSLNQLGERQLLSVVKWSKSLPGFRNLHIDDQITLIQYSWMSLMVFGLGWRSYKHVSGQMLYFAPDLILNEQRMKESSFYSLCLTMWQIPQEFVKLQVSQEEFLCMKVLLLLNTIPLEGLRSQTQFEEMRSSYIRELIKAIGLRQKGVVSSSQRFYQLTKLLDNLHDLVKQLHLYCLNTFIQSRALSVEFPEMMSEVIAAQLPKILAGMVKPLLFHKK
Put plainly: Progesterone receptor binding test. The settings on record: for Progesterone receptor (PR) Competition factor: CF 1 = affinity of progesterone, CF >1 lower affinity, <1 higher affinity; for CF PR/CF MR: ratio of competition factors CF(PR) and CF(MR). The method, then: 1. Progesterone Receptor Binding Test:
as §1

In the case of `CC[C@@H]1CC2=CC(=O)CC[C@@H]2[C@H]2CC[C@@]3(CC)[C@@H]([C@@H]4C[C@@H]4[C@@]34C=CC(=O)O4)[C@H]12` [Example 5A, 17β-Hydroxy-7α-ethyl-18-methyl-15β,16β-methylene-19-nor-17α-pregna-4,20(Z)-dien-3-one-21-carboxylic acid γ-lactone], in assay [1], the EC50 (as a rule, the concentration needed to bring the measured effect to its halfway point) is 99 nM and the Emax came out at 35.7%. The IC50 (commonly the point on the concentration scale where inhibition reaches its midpoint) on androgen receptor stood at 110 nM. Besides, at progesterone receptor, the IC50 was determined as 300 nM, the “Progesterone receptor (PR) Competition factor” value (shortened to “Progesterone receptor”) is recorded as 12.00 and the “CF PR/CF MR” value is 12.00.
On to `CC[C@@H]1CC2=CC(=O)CC[C@@H]2[C@H]2CC[C@@]3(C)[C@@H]([C@H]4C[C@H]4[C@@]34C=CC(=O)O4)[C@H]12` [Example 15A, 17β-Hydroxy-7α-ethyl-15α,16α-methylene-19-nor-17α-pregna-4,20(Z)-dien-3-one-21-carboxylic acid γ-lactone], for which, in assay [1], the EC50 turned out to be 92 nM and the Emax was 39.5%. On androgen receptor, this compound had an IC50 of 60 nM. Also, on progesterone receptor, the IC50 is 200 nM, the “Progesterone receptor” value came out at 8.36 and the “CF PR/CF MR” value was 10.45.
On to `CC[C@]12CC[C@H]3[C@@H]([C@H]4C[C@H]4C4=CC(=O)CC[C@@H]43)[C@@H]1[C@@H]1C[C@@H]1[C@@]21C=CC(=O)O1` [Example 1, 6β,7β;15β,16β-Bismethylene-17β-hydroxy-18-methyl-19-nor-17α-pregna-4,20(Z)-dien-3-one-21-carboxylic acid γ-lactone], for which, in assay [1], the EC50 came to 1.5 nM and the Emax is 62.8%. Moreover, at androgen receptor, the IC50 was found to be 280 nM. At progesterone receptor, the concentration for half-maximal inhibition (IC50) was found to be 41 nM, the “Progesterone receptor” value stood at 0.76 and the “CF PR/CF MR” value stood at 0.48.
In the case of `C[C@]12CC[C@H]3[C@@H](CCC4=CC(=O)CC[C@@H]43)[C@@H]1[C@@H]1C[C@@H]1[C@@]21C=CC(=O)O1` [Example 19, 17β-Hydroxy-15β,16β-methylene-19-nor-17α-pregna-4,20(Z)-dien-3-one-21-carboxylic acid γ-lactone], the IC50 on androgen receptor was 52 nM. In addition, on progesterone receptor, the IC50 was 25 nM, the “Progesterone receptor” value worked out at 1.70 and the “CF PR/CF MR” value turned out to be 0.01.
For the compound `C=C[C@@H]1CC2=CC(=O)CC[C@@H]2[C@H]2CC[C@@]3(CC)[C@@H]([C@@H]4C[C@@H]4[C@@]34C=CC(=O)O4)[C@@H]21` [Example 6A, 17β-Hydroxy-7α-vinyl-18-methyl-15β,16β-methylene-19-nor-17α-pregna-4,20(Z)-dien-3-one-21-carboxylic acid γ-lactone], in assay [1], the EC50 was determined as 140 nM and the Emax turned out to be 35.2%. The IC50 on androgen receptor stood at 45 nM. Moreover, on progesterone receptor, the IC50 amounted to 120 nM, the “Progesterone receptor” value turned out to be 4.85 and the “CF PR/CF MR” value worked out at 3.23.
For `CC[C@]12CC[C@H]3[C@@H](CCC4=CC(=O)CC[C@@H]43)[C@@H]1[C@@H]1C[C@@H]1[C@@]21C=CC(=O)O1` [Example 9, 17β-Hydroxy-18-methyl-15β,16β-methylene-19-nor-17α-pregna-4,20(Z) dien-3-one-21-carboxylic acid γ-lactone], in assay [1], the EC50 came out at 1.6 nM and the Emax is 56%. For the same compound, on progesterone receptor, the IC50 amounted to 78.5 nM, the “Progesterone receptor” value stood at 1.65 and the “CF PR/CF MR” value worked out at 1.50.
As to `C=C[C@@H]1CC2=CC(=O)CC[C@@H]2[C@H]2CC[C@@]3(C)[C@@H]([C@H]4C[C@H]4[C@@]34C=CC(=O)O4)[C@@H]21` [Example 16A, 17β-Hydroxy-7α-vinyl-15α,16α-methylene-19-nor-17α-pregna-4;20(Z)-dien-3-one-21-carboxylic acid γ-lactone], in assay [1], the midpoint of the response, the EC50, lay at 140 nM and the Emax was 59.3%. At androgen receptor, this compound gave an IC50 of 39 nM. Moreover, on progesterone receptor, the IC50 amounted to 85 nM, the “Progesterone receptor” value was determined as 3.76 and the “CF PR/CF MR” value turned out to be 1.88.
On androgen receptor, `CC[C@]12CC[C@H]3[C@@H]([C@@H]4C[C@@H]4C4=CC(=O)CC[C@@H]43)[C@@H]1[C@@H]1C[C@@H]1[C@@]21C=CC(=O)O1` [Example 2, 6α,7α;15β,16β-Bismethylene-17β-hydroxy-18-methyl-19-nor-17α-pregna-4,20(Z)-dien-3-one-21-carboxylic acid γ-lactone] returned an IC50 of 450 nM. In addition, at progesterone receptor, the IC50 worked out at 630 nM, the “Progesterone receptor” value is 24.37 and the “CF PR/CF MR” value is recorded as 5.54.
Turning to `C[C@]12CC[C@H]3[C@@H](CC4(CC4)C4=CC(=O)CC[C@@H]43)[C@@H]1[C@@H]1C[C@@H]1[C@@]21C=CC(=O)O1` [Example 22, 6,6-(1,2-Ethanediyl)-17β-hydroxy-15β,16β-methylene-19-nor-17α-pregna-4,20(Z)dien-3-one-21-carboxylic acid γ-lactone], in assay [1], the EC50 was found to be 1.1 nM and the Emax was determined as 126%. Besides, at progesterone receptor, the IC50 turned out to be 30 nM, the “Progesterone receptor” value was 1.04 and the “CF PR/CF MR” value was found to be 1.30.
